pIC50: −log10 of the molar value.
Experiments:
[1] = Antiproliferative activity against human MP41 cells assessed as reduction in cell viability measured after 72 hrs by CCK-8 method; assay type: functional, cell-based; settings: MP41, 72 h
[2] = biological target: GNAQ/GNA11 (Homo sapiens) (UniProt P50148+P29992); assay: Inhibition of Galphaq/11 (unknown origin) expressed in CHO-M1 cells at 10 uM preincubated for 1 hr followed by carbachol stimulation for 30 mins and measured after 1 hr by IP1 accumulation based HTRF assay relative to control; assay type: cell-based; settings: time 150.0 min
[3] = Antiproliferative activity against human 921 cells assessed as reduction in cell viability measured after 72 hrs by CCK-8 method; assay type: functional, cell-based; settings: Homo sapiens, 921, 72 h

Row | Compound | inhibition [2] [%] | pIC50 [1] | pIC50 [3]
1 | CC[C@H](C)[C@H](N)C(=O)N1CCn2cc(-c3ccc4c(c3)OCO4)nc2[C@@H]1CC1CCCCC1 | 20.2 | 4.89 | 4.73
2 | CC[C@H](C)[C@H](N)C(=O)N1CCn2cc(-c3cc(Cl)ccc3Cl)nc2[C@@H]1CC1CCCCC1 | 10.2 | 4.96 | 5.17
3 | CCC[C@H](N)CN1CCn2cc(-c3ccc4c(c3)CCCC4)nc2[C@@H]1CC1CCCCC1 | 15.9 | 5.05 | 5.55
4 | CC[C@H](C)[C@H](N)C(=O)N1CCn2cc(-c3ccc4c(c3)CCCC4)nc2[C@H]1C(C)C | 10.3 | 4.67 | 4.94
5 | c1cc2c(cc1-c1cn3c(n1)[C@H](CC1CCCCC1)N(CCNC1CCCC1)CC3)CCCC2 | 10.8 | 5.01 | 5.19
6 | CCC[C@H]1c2nc(-c3ccc4c(c3)CCCC4)cn2CCN1C(=O)[C@@H](N)[C@@H](C)CC | 5.2 | 4.74 | 4.90
7 | CC[C@H](C)[C@H](N)C(=O)N1CCn2cc(-c3cc(F)cc(Cl)c3)nc2[C@@H]1CC1CCCCC1 | 16.8 | 4.96 | 4.89
8 | CC[C@H](C)[C@H](N)C(=O)N1CCn2cc(-c3ccc4c(c3)CCCC4)nc2[C@@H]1C(C)C | 9.4 | 4.70 | 4.89
9 | CC(C)(C)NCCN1CCn2cc(-c3ccc4c(c3)CCCC4)nc2[C@@H]1CC1CCCCC1 | 6.9 | 5.06 | 5.28
10 | CC[C@H](C)[C@H](N)C(=O)N1CCn2cc(-c3cc(Cl)c(Cl)c(Cl)c3)nc2[C@@H]1CC1CCCCC1 | 13.2 | 5.11 | 5.23
11 | c1cc2c(cc1-c1cn3c(n1)[C@H](CC1CCCCC1)N(CCN1CCCCC1)CC3)CCCC2 | 6.8 | 4.89 | 5.17

More lines, main results first:

Row | inhibition [2] [%] | Compound | pIC50 [1] | pIC50 [3]
12 | 16.3 | CC[C@H](C)[C@H](N)C(=O)N1CCn2cc(-c3cccc(F)c3F)nc2[C@@H]1CC1CCCCC1 | 4.59 | 5.49
13 | 13.2 | CC[C@H](C)[C@H](N)C(=O)N1CCn2cc(-c3ccc(Cl)c(Cl)c3)nc2[C@@H]1CC1CCCCC1 | 5.00 | 5.18
14 | 24.4 | CC[C@H](C)[C@H](N)C(=O)N1CCn2cc(-c3ccccc3Cl)nc2[C@@H]1CC1CCCCC1 | 4.94 | 5.10
15 | 26.2 | CC[C@H](C)[C@H](N)C(=O)N1CCn2cc(-c3cccc(Cl)c3)nc2[C@@H]1CC1CCCCC1 | 4.95 | 5.00
16 | 13 | CC[C@H](C)[C@H](N)C(=O)N1CCn2cc(-c3cccc(S(C)(=O)=O)c3)nc2[C@@H]1CC1CCCCC1 | < 4.40 | < 4.40
17 | 19.9 | CC[C@H](C)[C@H](N)C(=O)N1CCn2cc(-c3cccc(Cl)c3Cl)nc2[C@@H]1CC1CCCCC1 | 5.04 | 4.86
18 | 26.5 | CC[C@H](C)[C@H](N)C(=O)N1CCn2cc(-c3ccc(Cl)cc3)nc2[C@@H]1CC1CCCCC1 | 5.00 | 5.03
19 | 12.4 | CC[C@H](C)[C@H](N)C(=O)N1CCn2cc(-c3cccc(OC(F)(F)F)c3)nc2[C@@H]1CC1CCCCC1 | < 4.40 | < 4.40
20 | 13.7 | CC[C@H](C)[C@H](N)C(=O)N1CCn2cc(-c3cccc(C)c3C)nc2[C@@H]1CC1CCCCC1 | 4.89 | 5.15
21 | 29.5 | CC[C@H](C)[C@H](N)C(=O)N1CCn2cc(-c3cccc(C)c3)nc2[C@@H]1CC1CCCCC1 | 5.21 | 4.61
22 | 13.1 | CC[C@H](C)[C@H](N)C(=O)N1CCn2cc(-c3ccc4ccccc4c3)nc2[C@@H]1CC1CCCCC1 | 4.81 | 4.73
23 | 17.5 | CC[C@H](C)[C@H](N)C(=O)N1CCn2cc(-c3cccc([N+](=O)[O-])c3)nc2[C@@H]1CC1CCCCC1 | 5.00 | 4.91

— ChEMBL document CHEMBL5352382, “Synthesis and evaluation of imidazo[1,2-a]pyrazine derivatives as small molecule Gαq/11 inhibitors against uveal melanoma” (Eur J Med Chem, 2022)
